Assay results taken from patent publication US20250011715A1, “METHOD FOR PRODUCING INNER EAR STRIA VASCULARIS MARGINAL CELLS, CHEMICAL AGENT ASSESSMENT METHOD, AND CELL CULTURE FOR ASSESSING CHEMICAL AGENT” (THE KITASATO INSTITUTE, priority 2021, published 2025).

Experiments:
[1] = tested on: inner ear stria vascularis marginal cells (cell mass after suspension culture) from human iPS cells; details: HBSS containing 2 mM EDTA, on ice 15 minutes, 4 kDa FITC-Dextran 2 mg/mL, Day 61, versus EDTA non-treatment; FIG. 18
Procedure: The inner ear progenitor cells were obtained from human iPS cells by the same method as in Test Example 1, and suspension culture was continued until the 49th day (Day 61) after the start of the suspension culture by the same method as in Test Example 2 using the inner ear progenitor cells.
For the obtained cells, a barrier function assay was performed. Specifically, the culture after the suspension culture was put into a microtube having a volume of 1.5 mL for each cell, and centrifuged, the culture medium was discarded, and 0.5 mL of HBSS containing 2 mM EDTA was added. In addition, as a control, a sample to which HBBS containing no EDTA was added was also prepared under the same conditions. Each of the samples was placed on ice for 15 minutes, and then 4 kDa FITC-Dextran was added to each of the samples to a concentration of 2 mg/mL, and the samples were suspended and immediately observed with a confocal microscope.

OTX2 gene = OTX2 gene expression by qPCR during differentiation induction into inner ear stria vascularis marginal cells; assay type: cell-based, human; details: Day 60; insulin-free medium (N21-Ins) versus B27+N2 medium and insulin-free medium with 1.5 μM insulin added from Day 20; FIG. 17
Procedure: The differentiation from human iPS cells into inner ear progenitor cells was induced by the same method as in Test Example 1, the cells on the 12th day (Day 12) from the start of the differentiation induction were detached off with Accutase, an equal amount of PBS was added thereto, the cells were passed through a nylon mesh (pore size: 40 μm), and the number of cells was counted with a hemocytometer.
The cells were suspended to a concentration of 5×10^5 cells/10 mL and seeded in a low adhesion 6-well plate (trade name “Corning Ultra-Low Attachment Plate”, Corning Inc.), and suspension culture was started under low oxygen conditions (4% of O2, 5% of CO2). […]
In any of the above Conditions 1) to 3), the cells on the 48th day (Day 60) after the start of the suspension culture were collected, and the expression level of the OTX2 gene, which is known to be expressed on the Reissner's membrane, which is an inner ear organ, and known to be poorly expressed in the inner ear stria vascularis marginal cells, was quantified by qPCR in the same manner as in Test Example 1.

Compound: O=C(O)CN(CCN(CC(=O)O)CC(=O)O)CC(=O)O [EDTA]
- barrier function between cells (transfer of FITC-Dextran to the inside of the cell mass) [1]: calcium-dependent barrier function was impaired

Compound: insulin
- expression level of OTX2 (OTX2 gene): low in a case where the culture medium did not contain insulin as compared with a case where insulin was contained in the culture medium
